Experiment [1] deals with CAl neurones of rat hippocampus. Put plainly: PSI (inhibition of population spike) test. The experiment is classed as cell-based. The following applies: electric stimulation of Shaffer collateral comissural pathway. The method, then:
PSI (inhibition of population spike) test
The field potentials (population spike) evoked by electric stimulation of the Shaffer collateral comissural pathway were measured in the CAl neurones of rat hippocampus. The population spike can be inhibited by AMPA/kainate antagonists. The non-cumulative IC50 values are shown in Table I. /Tarnawa, I., Molnár, P., Gaál, L., Andrási, F.: Inhibition of hippocampal field potentials by GYKI 52466 in vitro and in vivo, Acta Physiol. Hung., 79(2), 163-9 (1992)/.

Experiment [2] has as its system isolated retinal preparation of the chicken. Put plainly: SD (spreading depression) test, evoked by kainate. The experiment is classed as cell-based. The following applies: Gallus gallus, chicken retina. An excerpt:
SD (spreading depression) test
The method is based on the phenomenon of spreading depression evoked by kainate in isolated retinal preparation of the chicken. The formation of spreading depression is inhibited (delayed) by AMPA/kainate antagonists. /Sheardown M.J.: The triggering of spreading depression in the chicken retina: a pharmacological study, Brain Res., 607(1-2), 189-194 (1993)/.

Experiment [3] deals with male NMRI mice. The experiment is described as follows: Muscle relaxant effect, 60° inclined screen according to Hoppe. The experiment is classed as in vivo. Particulars: for ED50: Mus musculus, determined at the time of maximal effect; for ED50 / Muscle relaxant effect duration: ip.; for ED50 / Muscle relaxant effect duration / muscle relaxant effect in the inclined screen: mice; for Muscle relaxant effect duration: time of last reading when the effect was at least 30 %; for muscle relaxant effect in the inclined screen: 60 mg/kg dose. The method, then: The assay was done according to Hoppe in male NMRI mice weighing 20 to 25 g, with 10 animals in each group /Hoppe, J.O., J . Pharmacol. Exp. Ther., 100, 333 (1950)/. Following the ip. treatment of animals, the number of mice showing muscle weakness were recorded at every 10 minutes in the first hour and at half hour intervals afterwards. The animals falling off the 60° inclined screen within 30 seconds were considered positive. ED50 values of the given compounds were determined at each time. The duration of effect was defined as the time of last reading when the effect was at least 30 %.

The subject of experiment [4] is male NMRI mice. The experiment is described as follows: Maximal electroshock test (MES). The experiment is classed as in vivo. The following applies: Mus musculus, 0.5 h, ip., inhibition of maximal electroshock, 30 minutes after treatment. The method, then:
Maximal electroshock test (MES)
Male NMRI mice weighing 20 to 30 g were used for the method of Swinyard et al. /Swinyard, E.A., Brown, W.C. and Goodman, L.S.: Comparative assays of antiepileptic drugs in mice and rats, J. Pharmacol., 106, 319 (1952)/. The animals, 10 in each group, were treated ip. either with various doses of the test substance or with vehicle. After 30 minutes, a 50 Hz, 40 mA electroshock was applied for 0.4 s through corneal electrodes. The number of animals that developed tonic extensor convulsion of the hind-limbs was registered, percent inhibition was calculated, and ED50 values were determined by the method of Litchfield and Wilcoxon /Litchfield, J.T., Wilcoxon, F.A.: A simplified method of evaluating dose-effect experiments, J. Pharmacol. Exp. Ther., 96, 99 (1949)/ and summarized in Table III.
A general note: Protection in the maximal electroshock model is a classic sign of anticonvulsant action.

In a further experiment the test system is male DBA/2j strain mice. Put plainly: Audiogenic seizure (AS) test. The experiment is classed as in vivo. The following applies: Mus musculus, ip., DBA/2j mice, inhibition of sound induced seizure. As to the method:
Audiogenic seizure (AS) test
The experiments were carried out by the slightly modified method of De Sarro et al. /De Sarro, G.B., Croucher, M.J. and Meldrum, B.S.: Anticonvulsant action of DS 103-282, Neuropharm., 23, 525 (1984)/. Groups of 8 male DBA/2j strain mice weighing 7 to 14 g were treated ip. with the test substance in 10 ml/kg volume. 15 minutes later, the animals were placed into a covered glass container (30 cm in diameter) and exposed to a 14 kHz 120 dB tone for 60 s at the most. Seizure response was assessed using the following scale: 0 = normal behaviour, 1 = wild running, 2 = clonus, 3 = tonic flexor seizure, 4 = tonic extensor seizure. The maximum response during the 60 s exposure was recorded for each animal. Lethality was also noted. The ED50 values were determined by the method of Litchfield and Wilcoxon concerning the inhibition of clonic seizures and tonic extensor convulsions.

In experiment [5] the test system is male NMRI mice. The experiment is described as follows: Global ischemia induced by magnesium chloride (gasping time). The experiment is classed as in vivo. Particulars: for Effect in % (increase in gasping time): Dose 30 mg/kg ip., magnesium chloride iv. after 30 minutes; for ID50: ip., gasping time, calculated by linear regression. The method, then: Global ischemia induced by magnesium chloride
The experiments were carried out as described by Berga et al. /Berga, P., Beckett, P.R., Roberts, D.J., Llenas, J., Massingham, R.: Synergistic interactions between piracetam and dihydroergocristine in some animal models of cerebral hypoxia and ischemia, Arzneim.--Forsch., 36, 1314-1320 (1986)/. Groups of 10 male NMRI mice weighing 20 to 25 g were treated ip. with the test substance in […]. After 30 minutes, saturated aqueous magnesium chloride solution was applied iv. (5 ml/kg) resulting in an immediate cardiac arrest. The elapsed time between the iv. injection and the last gasping was measured (gasping time). The means of the treated groups were expressed as percent of control. Statistical analysis was done by ANOVA followed by DUNCAN test. The dose resulting in 50 % descrease in gasping time (ID50) was calculated by linear regression.

Setting [6] is: clonic seizures, read-out: AS ED50 clonic convulsion.
The mark [7] stands for this setting: tonic extensor convulsions, read-out: AS ED50 tonic convulsion.

Molecules are shown by their SMILES. Read-outs that look alike come from different tables or passages of the source.

As for `CC1Cc2cc3c(cc2C(c2ccc(N)cc2)=NN1C(=O)NC1CC1)OCO3` (racemic) [Example 2, (±)-5-(4-Aminophenyl)-7-(N-cyclopropylcarbamoyl)-7,8-dihydro-8-methyl-9H-1,3--dioxolo/4,5-h//2,3/benzodiazepine], in experiment [1], the “Percent inhibition of population spike (10 micron)” value (shortened to “Percent inhibition”) is reported as 100%. Also, in experiment [2], the IC50 (as a rule, the concentration needed to halve the response being measured) was 1.3 µM. Besides, the ED50 – broadly, the dose at which the effect has come halfway, by size or by number of responders – in the experiment on male NMRI mice [3] was found to be 21.1 mg/kg; with male NMRI mice [4], 4.6 mg/kg; in the experiment with male DBA/2j strain mice (setting [6]), 2.5 mg/kg; in the experiment on male DBA/2j strain mice (setting [7]), 1.6 mg/kg. Moreover, in the experiment on male NMRI mice [3], the “Muscle relaxant effect duration” value is “higher than 2 hr”. In the experiment on male NMRI mice [5], the “Effect in % (increase in gasping time)” value came out at 61%. The ID50 with male NMRI mice [5] is 13 mg/kg.
For the molecule `CC1=NN=C(c2ccc(N)cc2)c2cc3c(cc2C1)OCO3` [A, 8-Methyl-5--(4-aminophenyl)-9H-1,3-dioxolo/4,5-h//2,3/benzodiazepine, reference compound], in experiment [1], the “Percent inhibition” value is listed as 58%. 9.5 µM corresponded to half-maximal inhibition in experiment [2] (IC50). For the same molecule, in the experiment with male NMRI mice [3], the “muscle relaxant effect in the inclined screen” value is reported as “all the treated animals showed muscle relaxation”, it took a dose of 24.5 mg/kg to reach the 50% effect level (ED50) and the “Muscle relaxant effect duration” value was determined as 1 h. For the same molecule, the muscle relaxant effect result in the experiment with male NMRI mice [3] (at about 4.5 times higher dose than the anticonvulsive ED50 (6.9 mg/kg)) was “about 50%”. The molecule also returned an ED50 in the experiment with male NMRI mice [4] of 6.9 mg/kg. Also, the ED50 in the experiment on male DBA/2j strain mice (setting [6]) was 4.3 mg/kg. In addition, the ED50 in the experiment on male DBA/2j strain mice (setting [7]) was determined as 3.6 mg/kg. Also, in the experiment on male NMRI mice [5], the “Effect in % (increase in gasping time)” value is on record as 55% and the ID50 is recorded as 30 mg/kg.
On to `CC1=Cc2cc3c(cc2C(c2ccc(N)cc2)=NN1C(=O)NCCN1CCOCC1)OCO3` [Example 6, 5-(4-Aminopheayl)-8-methyl-7H-1,3-dioxolo/4,5-h//2,3/benzodiazepine-7-carboxylic acid-(2-morpholino-4-ylethyl)amide], for which 6.5 µM corresponded to half-maximal inhibition in experiment [2] (IC50). In the experiment with male NMRI mice [3], the “muscle relaxant effect in the inclined screen” value was “no muscle relaxant effect”. In addition, in the experiment with male NMRI mice [4], the ED50 is roughly 10 mg/kg.
In experiment [2], `CNC(=O)N1N=C(c2ccc(N)cc2)c2cc3c(cc2C=C1C)OCO3` [Example 11, 5-(4-Aminophenyl)-8-methyl-7-methylcarbamoyl-7H-1,3-dioxolo/4,5-h//2,3/benzodiazepine] showed an IC50 of 2.8 µM.
In the case of `CC1Cc2cc3c(cc2C(c2ccc(N)cc2)=NN1C(=O)NN)OCO3` (racemic) [Example 4, (±)-5-(4-Aminophenyl)-7-(N-aminocarbamoyl)--7,8-dihydro-8-methyl-9H-1,3-dioxolo/4,5-h//2,3/benzodiazepine], the “Percent inhibition” value in experiment [1] is given as 95%.
Turning to `CONC(=O)N1N=C(c2ccc(N)cc2)c2cc3c(cc2CC1C)OCO3` (racemic) [Example 3, (±)-5-(4-Aminophenyl)-7,8-dihydro-8-methyl--7-(N-methoxycarbamoyl)-9H-1,3-dioxolo/4,5-h//2,3/benzodiazepine], the “Percent inhibition” value in experiment [1] is recorded as 95%. Further, the IC50 in experiment [2] was determined as 1.5 µM. Moreover, in the experiment with male NMRI mice [3], it took a dose of 18.1 mg/kg to reach the 50% effect level (ED50) and the “Muscle relaxant effect duration” value was found to be 4 h. This molecule returned an ED50 in the experiment on male NMRI mice [4] of 3.7 mg/kg. Moreover, in the experiment on male NMRI mice [5], the “Effect in % (increase in gasping time)” value came out at 52% and the ID50 is 27 mg/kg.

(Values after EP1015457B1, “1,3-DIOXOLO/4,5-H//2,3/BENZODIAZEPINE DERIVATIVES AS AMPA/KAINATE RECEPTOR INHIBITORS” (EGIS GYOGYSZERGYAR RT., priority 1997, dated 1999).)
